What was measured:
Experiment in all cases: relative viability (nuclei count vs DMSO), 5 days (fraction); higher = more cells survive
[1] = compound: CC1=C(C(=O)N2C=CSC2=N1)CCN3CCC(=C(C4=CC=CC=C4)C5=CC=C(C=C5)F)CC3 + Cc1cc(Nc2cc(N3CCN(C)CC3)nc(Sc3ccc(NC(=O)C4CC4)cc3)n2)n[nH]1 [Tozasertib] (partner 0.1 µM)
Outline: (§1)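 Each reported value is a median over duplicate plates. It expresses relative viability: treated-well nuclei count divided by vehicle-well nuclei count. Lung cancer cell lines in 1536-well plates were dosed by pin tool a day after seeding, alone with one drug or with a fixed anchor-drug dose plus five library-drug doses (not always all listed) in √10 steps, and nuclei were counted after 5 days.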

[2] = compound: CC1=C(C(=O)N2C=CSC2=N1)CCN3CCC(=C(C4=CC=CC=C4)C5=CC=C(C=C5)F)CC3 + COc1cc2c(Oc3ccc(NC(=O)C4(C(=O)Nc5ccc(F)cc5)CC4)cc3F)ccnc2cc1OCCCN1CCOCC1 [Foretinib] (partner 0.25 µM)
Outline: as §1

[3] = compound: CC1=C(C(=O)N2C=CSC2=N1)CCN3CCC(=C(C4=CC=CC=C4)C5=CC=C(C=C5)F)CC3 + NC(=O)Nc1cc(-c2cccc(F)c2)sc1C(=O)N[C@H]1CCCNC1 [AZD7762] (partner 0.2 µM)
Outline: as §1

[4] = compound: CC1=C(C(=O)N2C=CSC2=N1)CCN3CCC(=C(C4=CC=CC=C4)C5=CC=C(C=C5)F)CC3 + CCNC(=O)c1noc(-c2cc(C(C)C)c(O)cc2O)c1-c1ccc(CN2CCOCC2)cc1 [Luminespib] (partner 0.01 µM)
Outline: as §1

Cell Line	relative viability ([1]; first compound 0.08 µM)	relative viability ([1]; first compound 0.253 µM)	relative viability ([1]; first compound 0.8 µM)	relative viability ([1]; first compound 2.53 µM)	relative viability ([1]; first compound 8 µM)	relative viability ([2]; first compound 0.08 µM)	relative viability ([2]; first compound 0.253 µM)	relative viability ([2]; first compound 0.8 µM)	relative viability ([2]; first compound 2.53 µM)	relative viability ([2]; first compound 8 µM)	relative viability ([3]; first compound 0.08 µM)	relative viability ([3]; first compound 0.253 µM)	relative viability ([3]; first compound 0.8 µM)	relative viability ([3]; first compound 2.53 µM)	relative viability ([3]; first compound 8 µM)	relative viability ([4]; first compound 0.08 µM)	relative viability ([4]; first compound 0.253 µM)	relative viability ([4]; first compound 0.8 µM)	relative viability ([4]; first compound 2.53 µM)	relative viability ([4]; first compound 8 µM)
NCI-H1355	0.623	0.544	0.52	0.496	0.532	1.09	0.94	1.08	0.893	0.661	1.02	0.846	0.822	0.815	0.595	0.767	0.735	0.809	0.656	0.675
NCI-H1395	0.809	0.868	0.697	0.765	0.686	1.07	1.08	0.972	0.97	1.06	0.384	0.457	0.391	0.419	0.383	0.606	0.746	1.01	0.955	0.776
NCI-H1437	0.399	0.35	0.433	0.43	0.36	1.23	1.32	1.31	1.34	0.841	1.25	1.32	1.21	1.14	1.04	1.11	1.21	1.28	1.27	0.739
NCI-H1651	0.689	0.611	0.683	0.793	0.379	0.747	0.884	0.912	0.822	0.558	0.438	0.467	0.472	0.467	0.304	1.04	0.943	1.07	1.04	0.588
NCI-H1666	0.596	0.591	0.655	0.642	0.493	0.924	0.956	0.949	1.04	0.798	0.787	0.819	0.847	0.946	0.673	1.07	1.06	1.01	0.984	0.848
NCI-H1734	0.253	0.237	0.266	0.27	0.234	0.991	0.913	0.72	0.992	0.555	0.545	0.487	0.475	0.549	0.368	0.202	0.174	0.205	0.166	0.183
NCI-H1755	0.553	0.614	0.604	0.547	0.421	0.907	0.888	0.892	0.912	0.762	0.465	0.446	0.434	0.508	0.418	0.467	0.548	0.374	0.333	0.519
NCI-H1793	0.354	0.339	0.312	0.362	0.258	0.601	0.866	0.795	0.624	0.44	0.457	0.408	0.597	0.381	0.378	0.167	0.207	0.161	0.178	0.168

From the supplement of paper PMC10307832
